Measured values published in the supplement of paper PMC10307832.

Tests used:
Experiment in all cases: relative viability (nuclei count vs DMSO), 5 days (fraction); higher = more cells survive
IPA-3 + Dasatinib = compound: C1=CC=C2C(=C1)C=CC(=C2SSC3=C(C=CC4=CC=CC=C43)O)O [IPA-3] + Cc1nc(Nc2ncc(C(=O)Nc3c(C)cccc3Cl)s2)cc(N2CCN(CCO)CC2)n1 [Dasatinib] (partner 0.075 µM)
In short: (§1)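 Nuclei were stained with Hoechst during a one-step fixation (final 0.05% Triton X-100, 1% formaldehyde, 1 ug/ml Hoechst) carried out 5 days after dosing, then counted on 4× images. The cells, lung cancer lines in 1536-well plates, had been dosed by pin tool the day after seeding with one drug alone or a fixed anchor-drug dose plus five library-drug doses (not always all listed) in √10 steps. Relative viability is the nuclei count in treated wells divided by that in vehicle wells, and each value is the median of duplicate plates.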

[1] = compound: Cc1ccc(-n2nc(C(C)(C)C)cc2NC(=O)Nc2ccc(OCCN3CCOCC3)c3ccccc23)cc1 [Doramapimod] + CC(=O)c1c(C)c2cnc(Nc3ccc(N4CCNCC4)cn3)nc2n(C2CCCC2)c1=O [Palbociclib] (partner 0.5 µM)
In short: as §1

Doramapimod + Navitoclax = compound: Cc1ccc(-n2nc(C(C)(C)C)cc2NC(=O)Nc2ccc(OCCN3CCOCC3)c3ccccc23)cc1 [Doramapimod] + CC1(C)CCC(c2ccc(Cl)cc2)=C(CN2CCN(c3ccc(C(=O)NS(=O)(=O)c4ccc(N[C@H](CCN5CCOCC5)CSc5ccccc5)c(S(=O)(=O)C(F)(F)F)c4)cc3)CC2)C1 [Navitoclax] (partner 0.5 µM)
In short: as §1

Doramapimod + Pemetrexed = compound: Cc1ccc(-n2nc(C(C)(C)C)cc2NC(=O)Nc2ccc(OCCN3CCOCC3)c3ccccc23)cc1 [Doramapimod] + Nc1nc2[nH]cc(CCc3ccc(C(=O)N[C@@H](CCC(=O)O)C(=O)O)cc3)c2c(=O)[nH]1 [Pemetrexed] (partner 0.2 µM)
In short: as §1

Row | Cell Line | relative viability (IPA-3 + Dasatinib; first compound 0.2 µM) | relative viability (IPA-3 + Dasatinib; first compound 0.6325 µM) | relative viability (IPA-3 + Dasatinib; first compound 2 µM) | relative viability (IPA-3 + Dasatinib; first compound 6.325 µM) | relative viability (IPA-3 + Dasatinib; first compound 20 µM) | relative viability ([1]; first compound 0.02 µM) | relative viability ([1]; first compound 0.06325 µM) | relative viability ([1]; first compound 0.2 µM) | relative viability ([1]; first compound 0.6325 µM) | relative viability ([1]; first compound 2 µM) | relative viability (Doramapimod + Navitoclax; first compound 0.02 µM) | relative viability (Doramapimod + Navitoclax; first compound 0.06325 µM) | relative viability (Doramapimod + Navitoclax; first compound 0.2 µM) | relative viability (Doramapimod + Navitoclax; first compound 0.6325 µM) | relative viability (Doramapimod + Navitoclax; first compound 2 µM) | relative viability (Doramapimod + Pemetrexed; first compound 0.02 µM) | relative viability (Doramapimod + Pemetrexed; first compound 0.06325 µM) | relative viability (Doramapimod + Pemetrexed; first compound 0.2 µM) | relative viability (Doramapimod + Pemetrexed; first compound 0.6325 µM) | relative viability (Doramapimod + Pemetrexed; first compound 2 µM)
1 | HOP-62 | 0.807 | 0.577 | 0.71 | 0.589 | 0.67 | 0.369 | 0.483 | 0.497 | 0.524 | 0.485 | 1.1 | 1.1 | 1.17 | 1.04 | 1.05 | 0.242 | 0.306 | 0.295 | 0.326 | 0.309
2 | LC-2-ad | 0.616 | 0.537 | 0.662 | 0.611 | 0.615 | 0.521 | 0.467 | 0.502 | 0.529 | 0.529 | 0.399 | 0.342 | 0.377 | 0.422 | 0.357 | 0.268 | 0.291 | 0.297 | 0.28 | 0.289
3 | LCLC-97TM1 | 0.933 | 0.844 | 0.945 | 1.01 | 0.83 | 0.233 | 0.211 | 0.257 | 0.219 | 0.171 | 0.372 | 0.434 | 0.525 | 0.51 | 0.371 | 0.181 | 0.171 | 0.164 | 0.184 | 0.156
4 | LK-2 | 0.261 | 0.27 | 0.222 | 0.28 | 0.282 | 0.515 | 0.576 | 0.54 | 0.518 | 0.413 | 0.731 | 0.757 | 0.695 | 0.72 | 0.741 | 0.283 | 0.286 | 0.283 | 0.198 | 0.157
5 | LOU-NH91 | 0.628 | 0.568 | 0.573 | 0.542 | 0.697 | 0.531 | 0.564 | 0.535 | 0.528 | 0.509 | 0.683 | 0.588 | 0.627 | 0.63 | 0.452 | 0.388 | 0.396 | 0.355 | 0.379 | 0.395
6 | LU99A | 0.584 | 0.61 | 0.642 | 0.725 | 0.669 | 0.38 | 0.365 | 0.379 | 0.426 | 0.313 | 0.662 | 0.645 | 0.818 | 0.977 | 0.798 | 0.175 | 0.196 | 0.155 | 0.18 | 0.323
7 | LXF-289 | 0.279 | 0.264 | 0.28 | 0.176 | 0.237 | 0.6 | 0.586 | 0.615 | 0.567 | 0.63 | 0.954 | 1 | 0.939 | 0.903 | 0.942 | 0.959 | 0.914 | 0.83 | 0.863 | 0.971
8 | NCI-H23 | 0.598 | 0.795 | 0.861 | 0.724 | 0.617 | 0.458 | 0.485 | 0.482 | 0.52 | 0.568 | 0.905 | 0.794 | 0.763 | 0.882 | 0.832 | 0.607 | 0.749 | 0.679 | 0.703 | 0.533
